Assays:
Type in all cases: in vivo
[1] = test system: Digitaria sanguinalis (DIGSA); assay: Pre-emergence herbicidal action against DIGSA
Summary of the method: (§1)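 Herbicide applied to soil before seedling emergence, at 600 l/ha spray volume with 0.5% additive and rates up to 320 g/ha. Evaluation: visual percentage effect, about 3 weeks later, greenhouse-grown pots compared with untreated ones.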

[2] = test system: Polygonum convolvulus (POLCO); assay: Post-emergence herbicidal action against POLCO; details: dosage 320 g/ha
Summary of the method: (§2)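 Doses of 320 g/ha or lower, suffixes a, b and c marking different dosages, were applied post-emergence at the one-leaf stage in 600 l/ha water with 0.5% additive. Damage was assessed visually after about 3 weeks in the greenhouse.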

[3] = test system: Verconica persica (VERPE); assay: Post-emergence herbicidal action against VERPE
Summary of the method: as §2

Avena fatua (AVEFA) [4] = assay: Pre-emergence herbicidal action against AVEFA; details: 320 g/ha, visual scoring after about 3 weeks vs untreated controls
Summary of the method: as §1

[5] = test system: Alopecurus myosuroides (ALOMY); assay: Post-emergence herbicidal action against ALOMY; details: visual rating about 3 weeks after treatment vs untreated controls (100% = plants have died, 0% = like control plants)
Summary of the method: as §2

Setaria viridis (SETVI) [6] = assay: Post-emergence herbicidal action against SETVI
Summary of the method: as §2

[7] = test system: Echinochloa crus-galli (ECHCG); assay: Pre-emergence herbicidal action against ECHCG
Summary of the method: as §1

[8] = test system: Alopecurus myosuroides (ALOMY); assay: Pre-emergence herbicidal action against ALOMY; details: scored visually after about 3 weeks, 100% = plants have died
Summary of the method: as §1

[9] = test system: Polygonum convolvulus (POLCO); assay: Pre-emergence herbicidal action against POLCO
Summary of the method: as §1

[10] = test system: Echinochloa crus-galli (ECHCG); assay: Post-emergence herbicidal action against ECHCG
Summary of the method: as §2

Viola tricolor (VIOTR) [11] = assay: Post-emergence herbicidal action against VIOTR
Summary of the method: as §2

Avena fatua (AVEFA) [12] = assay: Post-emergence herbicidal action against AVEFA; details: 320 g/ha, visual rating about 3 weeks after treatment
Summary of the method: as §2

[13] = test system: Pharbitis purpurea (PHBPU); assay: Post-emergence herbicidal action against PHBPU
Summary of the method: as §2

Lolium rigidum (LOLRI) [14] = assay: Post-emergence herbicidal action against LOLRI
Summary of the method: as §2

[15] = test system: Abutilon theophrasti (ABUTH); assay: Post-emergence herbicidal action against ABUTH; details: 320 g/ha, visual rating about 3 weeks after treatment vs untreated controls (100% = plants have died, 0% = like control plants)
Summary of the method: as §2

[16] = test system: Abutilon theophrasti (ABUTH); assay: Pre-emergence herbicidal action against ABUTH; details: Dosage column 320 g/ha (title prints 3200 g/ha); scored visually after about 3 weeks; 100% = plants have died
Summary of the method: as §1

[17] = test system: Digitaria sanguinalis (DIGSA); assay: Post-emergence herbicidal action against DIGSA; details: visual rating about 3 weeks after treatment
Summary of the method: as §2

Lolium rigidum (LOLRI) [18] = assay: Pre-emergence herbicidal action against LOLRI
Summary of the method: as §1

[19] = test system: Amaranthus retroflexus (AMARE); assay: Pre-emergence herbicidal action against AMARE; details: visual scoring after about 3 weeks vs untreated controls
Summary of the method: as §1

Setaria viridis (SETVI) [20] = assay: Pre-emergence herbicidal action against SETVI
Summary of the method: as §1

Viola tricolor (VIOTR) [21] = assay: Pre-emergence herbicidal action against VIOTR
Summary of the method: as §1

[22] = test system: Matricaria inodora (MATIN); assay: Pre-emergence herbicidal action against MATIN
Summary of the method: as §1

[23] = test system: Verconica persica (VERPE); assay: Pre-emergence herbicidal action against VERPE; details: dosage 320 g/ha
Summary of the method: as §1

[24] = test system: Pharbitis purpurea (PHBPU); assay: Pre-emergence herbicidal action against PHBPU
Summary of the method: as §1

[25] = test system: Matricaria inodora (MATIN); assay: Post-emergence herbicidal action against MATIN; details: dosage 320 g/ha
Summary of the method: as §2

[26] = 80 g/ha, visual scoring after about 3 weeks vs untreated controls

COC(=O)[C@H](C)COC(=O)COc1nn(-c2ccccn2)c(-c2cncc(F)c2)c1Br [Example I-195]
90%: Pre-emergence action against DIGSA in % [1, 26] | Pre-emergence action against AVEFA in % (Avena fatua (AVEFA) [4]) | Post-emergence action against ALOMY in % ([5]; 320 g/ha) | Post-emergence action against SETVI in % (Setaria viridis (SETVI) [6]; dosage 80 g/ha) | Post-emergence action against SETVI in % (Setaria viridis (SETVI) [6]; dosage 320 g/ha) | Pre-emergence action against ALOMY ([8]; 320 g/ha) | Pre-emergence action against POLCO in % ([9]; dosage 80 g/ha) | Post-emergence action against AVEFA in % (Avena fatua (AVEFA) [12]) | Post-emergence action against PHBPU in % ([13]; dosage 80 g/ha) | Post-emergence action against PHBPU in % ([13]; dosage 320 g/ha) | Post-emergence action against ABUTH in % [15] | Post-emergence action against DIGSA in % ([17]; 80 g/ha) | Post-emergence action against DIGSA in % ([17]; 320 g/ha) | Pre-emergence action against AMARE in % ([19]; 80 g/ha) | Pre-emergence action against MATIN in % ([22]; dosage 80 g/ha) | Pre-emergence action against MATIN in % ([22]; dosage 320 g/ha) | Pre-emergence action against PHBPU in % ([24]; dosage 320 g/ha)
80%: Post-emergence action against POLCO in % [2] | Post-emergence action against VERPE in % ([3]; 320 g/ha, VERPE) | Post-emergence action against VERPE in % ([3]; dosage 80 g/ha) | Post-emergence action against ALOMY in % ([5]; 80 g/ha) | Pre-emergence action against ALOMY ([8]; 80 g/ha) | Post-emergence action against ECHCG in % ([10]; dosage 320 g/ha) | Post-emergence action against VIOTR in % (Viola tricolor (VIOTR) [11]; 80 g/ha) | Post-emergence action against VIOTR in % (Viola tricolor (VIOTR) [11]; 320 g/ha) | Post-emergence action against LOLRI in % (Lolium rigidum (LOLRI) [14]; dosage 320 g/ha) | Pre-emergence action against ABUTH [16] | Pre-emergence action against LOLRI in % (Lolium rigidum (LOLRI) [18]; dosage 80 g/ha) | Pre-emergence action against VIOTR in % (Viola tricolor (VIOTR) [21]; dosage 80 g/ha)
100%: Pre-emergence action against DIGSA in % ([1]; dosage 320 g/ha) | Pre-emergence action against ECHCG in % ([7]; dosage 320 g/ha) | Pre-emergence action against POLCO in % ([9]; dosage 320 g/ha) | Pre-emergence action against LOLRI in % (Lolium rigidum (LOLRI) [18]; dosage 320 g/ha) | Pre-emergence action against AMARE in % ([19]; 320 g/ha) | Pre-emergence action against SETVI in % (Setaria viridis (SETVI) [20]; dosage 80 g/ha) | Pre-emergence action against SETVI in % (Setaria viridis (SETVI) [20]; dosage 320 g/ha) | Pre-emergence action against VIOTR in % (Viola tricolor (VIOTR) [21]; 320 g/ha, Viola tricolor) | Pre-emergence action against VERPE in % [23]

COC(=O)[C@@H](C)Oc1nn(-c2nc(F)ccc2F)c(-c2cncc(F)c2)c1Cl [Example I-154]
100%: Pre-emergence action against DIGSA in % ([1]; dosage 320 g/ha) | Pre-emergence action against ECHCG in % ([7]; dosage 320 g/ha) | Pre-emergence action against LOLRI in % (Lolium rigidum (LOLRI) [18]; dosage 320 g/ha) | Pre-emergence action against AMARE in % ([19]; 320 g/ha) | Pre-emergence action against SETVI in % (Setaria viridis (SETVI) [20]; dosage 320 g/ha) | Pre-emergence action against VIOTR in % (Viola tricolor (VIOTR) [21]; 320 g/ha, Viola tricolor) | Pre-emergence action against VIOTR in % (Viola tricolor (VIOTR) [21]; dosage 80 g/ha) | Pre-emergence action against MATIN in % ([22]; dosage 320 g/ha) | Pre-emergence action against VERPE in % [23]
80%: Post-emergence action against POLCO in % [2] | Pre-emergence action against AVEFA in % (Avena fatua (AVEFA) [4]) | Post-emergence action against SETVI in % (Setaria viridis (SETVI) [6]; dosage 320 g/ha) | Pre-emergence action against ALOMY ([8]; 80 g/ha) | Post-emergence action against ECHCG in % ([10]; dosage 80 g/ha) | Post-emergence action against ECHCG in % ([10]; dosage 320 g/ha) | Post-emergence action against VIOTR in % (Viola tricolor (VIOTR) [11]; 320 g/ha) | Post-emergence action against AVEFA in % (Avena fatua (AVEFA) [12]) | Post-emergence action against PHBPU in % ([13]; dosage 80 g/ha) | Post-emergence action against LOLRI in % (Lolium rigidum (LOLRI) [14]; dosage 80 g/ha) | Post-emergence action against DIGSA in % ([17]; 80 g/ha) | Post-emergence action against MATIN in % [25] | Pre-emergence action against PHBPU in % ([24]; dosage 80 g/ha)
90%: Pre-emergence action against DIGSA in % [1, 26] | Pre-emergence action against ECHCG in % ([7]; dosage 80 g/ha) | Pre-emergence action against ALOMY ([8]; 320 g/ha) | Pre-emergence action against POLCO in % ([9]; dosage 320 g/ha) | Post-emergence action against PHBPU in % ([13]; dosage 320 g/ha) | Post-emergence action against LOLRI in % (Lolium rigidum (LOLRI) [14]; dosage 320 g/ha) | Pre-emergence action against ABUTH [16] | Post-emergence action against DIGSA in % ([17]; 320 g/ha) | Pre-emergence action against LOLRI in % (Lolium rigidum (LOLRI) [18]; dosage 80 g/ha) | Pre-emergence action against AMARE in % ([19]; 80 g/ha) | Pre-emergence action against SETVI in % (Setaria viridis (SETVI) [20]; dosage 80 g/ha) | Pre-emergence action against MATIN in % ([22]; dosage 80 g/ha) | Pre-emergence action against PHBPU in % ([24]; dosage 320 g/ha)
